Source: patent US4755526A, “Method of inhibiting aromatase” (Eli Lilly and Company, priority 1984, dated 1988)
Where a name gives a salt, the structure may show the parent alone. Values belong to the compound of their own block, whether it stands above or below them.

Columns and labels:
aromatase = target: T1, aromatase (Rattus norvegicus, UniProt P22443); experiment: Aromatase inhibition in the rat ovarian microsome assay; assay type: biochemical; conditions: EC50: concentration required to achieve 50% inhibition of aromatase activity, substrate (androstenedione) concentration 0.1 μM
T1 construct: ovarian microsomes are obtained from rats treated with pregnant mares serum gonadotropin; from tissue; host or cells: ovarian microsomes of rats treated with pregnant mares serum gonadotropin
T1 sequence (P22443 1-508): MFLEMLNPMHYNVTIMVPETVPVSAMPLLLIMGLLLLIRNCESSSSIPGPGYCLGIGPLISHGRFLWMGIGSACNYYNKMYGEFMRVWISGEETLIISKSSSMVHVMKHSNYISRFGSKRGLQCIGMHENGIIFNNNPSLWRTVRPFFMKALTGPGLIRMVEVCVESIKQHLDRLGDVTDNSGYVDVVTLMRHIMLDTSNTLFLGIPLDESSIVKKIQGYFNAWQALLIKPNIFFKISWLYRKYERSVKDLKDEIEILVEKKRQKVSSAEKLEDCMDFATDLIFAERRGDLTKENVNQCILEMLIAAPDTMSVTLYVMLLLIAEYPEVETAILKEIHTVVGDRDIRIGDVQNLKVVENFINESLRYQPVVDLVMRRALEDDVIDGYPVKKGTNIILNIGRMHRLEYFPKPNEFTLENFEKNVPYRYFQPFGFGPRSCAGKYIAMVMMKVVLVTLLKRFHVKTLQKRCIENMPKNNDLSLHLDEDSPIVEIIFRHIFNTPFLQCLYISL
Protocol: In this test system, ovarian microsomes are obtained from rats treated with pregnant mares serum gonadotropin. Test compounds are added to reaction vials containing 0.1 μM 4-androstene-3,17-dione, 100,000 dpm 1,2[^3 H]-androstenedione, the microsomes and a NADPH generating system. The concentrations of the inhibitors tested ranged between 0.005 and 10 μM.

estrogen synthesis = experiment: Estrogen synthesis inhibition in rats (uterine weight and ovarian steroid concentrations); assay type: in vivo, female Wistar rats; conditions: for Mean Steroid Concentration, estradiol / Mean Steroid Concentration, estriol / Mean Steroid Concentration, estrone: ovaries; for Mean Uterine Weight: testosterone propionate-treated rats
Protocol: Test compounds were administered for seven days either daily by gavage in corn oil or as a component of the diet. Control animals received either corn oil or diet without the test compound. Beginning on the fourth day of the test, all animals treated with the test compound and one half of the control animals were given a subcutaneous injection of 1.0 mg of testosterone propionate in corn oil. The remaining control animals received only an equivalent volume of corn oil.
After two hours, the animals were killed by decapitation. Uteri were isolated, trimmed of extraneous connective tissue, and weighed. […] In the control animals treated with testosterone propionate, estrogens produced by aromatization stimulated the uterus resulting in an increase in weight.
The ovarian steroids were extracted with 1.5 ml of 9:1 (v/v) toluene/ethanol to which had been added 25 to 100 mcg each of unlabelled estradiol, estriol, and estrone, and approximately 1000 dpm of [^14 C]-estradiol. The samples were vortexed, centrifuged at 500×g for 10 minutes, and the organic phase was transferred to a conical vial. Two additional extractions were performed on the residue in the same way. The pooled organic extracts were evaporated for subsequent thin-layer chromatography.
Ovarian proteins were precipitated by the addition of 5.0 ml of ethanol to the remaining aqueous phase. After an overnight incubation at 4° C., the samples were centrifuged at 1500×g for 10 minutes. The supernatant was discarded, and the pellet was dissolved in 0.3N potassium hydroxide.
The organic residue from each above extraction was redissolved in 9:1 (v/v) dichloromethane/methanol. The solution of each sample was applied to separate silica gel thin layer chromatography plates which contained a fluorescent indicator. The plates were developed in the first dimension with 160:38:1.5:0.5 (v/v/v/v) dichloromethane/ethyl acetate/methanol/acetic acid to within 3 cm of the top of the plate. After air-drying, the plate was developed in the second dimension with 180:19:1 (v/v/v) dichloromethane/methanol/ammonium hydroxide. The plate was air-dried and viewed under 254 nm UV light.
The visible spots were marked and the plates were sprayed with primulin (0.001% in 4:1 v/v acetone/water) according to the method of Wright, J. Chromatography, 59, 220 (1971) which allowed for the identification of additional steroids under 365 nm UV light. The spots were scraped from the plate using a glass wool plugged Pasteur pipet attached to a vacuum line. The steroids were eluted directly into scintillation vials by the addition of 0.2 ml of dichloromethane followed by two washes each of 2.0 ml of methanol. The organic solvent was evaporated and 10.0 ml of scintillation fluid (Beckman Ready Solv-NA) was added to the vials. Samples were analyzed by liquid scintillation spectrometry. Corrections were made based on the recoveries of the [^14 C]-steroid. Steroid concentrations are expressed as femtomoles per milligram protein.

[1] = 200 ppm in feed (approximately 20 mg/kg/day)
[2] = 30 ppm in feed (approximately 3 mg/kg/day)
[3] = 300 ppm in feed (approximately 30 mg/kg/day)

Compound: Cc1nccn1C(c1ccc(Cl)cc1)(c1ccc(Cl)cc1)c1cccnc1 [3-[bis(4-chlorophenyl)(2-methyl-1H--imidazol-1-yl)methyl]pyridine]
EC50 (aromatase): < 0.05 µM
Mean Steroid Concentration, estradiol (estrogen synthesis; [1]): 0.89 femtomoles per milligram of protein
Mean Steroid Concentration, estriol (estrogen synthesis; [1]): 0.38 femtomoles per milligram of protein
Mean Steroid Concentration, estrone (estrogen synthesis; [1]): 0.06 femtomoles per milligram of protein
Mean Uterine Weight (estrogen synthesis; [1]): 125.8 mg

Compound: Clc1ccc(COc2ccccc2Cn2ccnc2)c(Cl)c1 [1-[(2-[2,4-dichlorobenzyloxy]phenyl)methyl]-1H--imidazole nitrate]
EC50 (aromatase): 0.068 µM
Mean Steroid Concentration, estradiol (estrogen synthesis; [2]): 1.16 femtomoles per milligram of protein
Mean Steroid Concentration, estriol (estrogen synthesis; [2]): 0.33 femtomoles per milligram of protein
Mean Steroid Concentration, estrone (estrogen synthesis; [2]): 0.31 femtomoles per milligram of protein
Mean Uterine Weight (estrogen synthesis; [2]): 173.5 mg
Mean Steroid Concentration, estradiol (estrogen synthesis; [3]): 1.97 femtomoles per milligram of protein
Mean Steroid Concentration, estriol (estrogen synthesis; [3]): 0.34 femtomoles per milligram of protein
Mean Steroid Concentration, estrone (estrogen synthesis; [3]): 0.30 femtomoles per milligram of protein
Mean Uterine Weight (estrogen synthesis; [3]): 151.4 mg

Compound: Clc1ccc(C(c2ccc(Cl)cc2)(c2cccnc2)n2cncn2)cc1 [3-[bis(4-chlorophenyl)-1H--1,2,4-triazol-1-ylmethyl]pyridine]
EC50 (aromatase): 0.06 µM
Mean Steroid Concentration, estradiol (estrogen synthesis; [2]): 1.83 femtomoles per milligram of protein
Mean Steroid Concentration, estriol (estrogen synthesis; [2]): 0.36 femtomoles per milligram of protein
Mean Steroid Concentration, estrone (estrogen synthesis; [2]): 0.06 femtomoles per milligram of protein
Mean Uterine Weight (estrogen synthesis; [2]): 150.8 mg
Mean Steroid Concentration, estradiol (estrogen synthesis; [3]): 1.18 femtomoles per milligram of protein
Mean Steroid Concentration, estriol (estrogen synthesis; [3]): 0.13 femtomoles per milligram of protein
Mean Steroid Concentration, estrone (estrogen synthesis; [3]): 0.06 femtomoles per milligram of protein
Mean Uterine Weight (estrogen synthesis; [3]): 85.6 mg

Compound: c1ccc(C(c2ccccc2)(c2ccccc2)n2ccnc2)cc1 [1-tritylimidazole]
EC50 (aromatase): 0.032 µM
Mean Steroid Concentration, estradiol (estrogen synthesis; [2]): 0.75 femtomoles per milligram of protein
Mean Steroid Concentration, estriol (estrogen synthesis; [2]): 0.44 femtomoles per milligram of protein
Mean Steroid Concentration, estrone (estrogen synthesis; [2]): 0.23 femtomoles per milligram of protein
Mean Uterine Weight (estrogen synthesis; [2]): 135.0 mg
Mean Steroid Concentration, estradiol (estrogen synthesis; [3]): 0.64 femtomoles per milligram of protein
Mean Steroid Concentration, estriol (estrogen synthesis; [3]): 0.28 femtomoles per milligram of protein
Mean Steroid Concentration, estrone (estrogen synthesis; [3]): 0.21 femtomoles per milligram of protein
Mean Uterine Weight (estrogen synthesis; [3]): 122.6 mg

Compound: FC(F)(F)c1cccc(C(c2ccc(Cl)cc2)(c2cccnc2)n2cncn2)c1 (stereo not shown) [3-[(4-chlorophenyl)-1H--1,2,4-triazol-1-yl-(3-trifluoromethylphenyl)methyl]pyridine]
EC50 (aromatase): 0.098 µM
Mean Steroid Concentration, estradiol (estrogen synthesis; [1]): 0.88 femtomoles per milligram of protein
Mean Steroid Concentration, estriol (estrogen synthesis; [1]): 0.06 femtomoles per milligram of protein
Mean Steroid Concentration, estrone (estrogen synthesis; [1]): 0.01 femtomoles per milligram of protein
Mean Uterine Weight (estrogen synthesis; [1]): 159.2 mg

Compound: c1ccc(C(c2ccccc2)(c2ccccc2)n2cncn2)cc1 [1-trityl-1H--1,2,4-triazole]
EC50 (aromatase): 0.31 µM

Compound: Fc1ccc(C(c2ccc(F)cc2)n2cncn2)cc1 [1-[bis(4-fluorophenyl)methyl]-1H--1,2,4-triazole]
EC50 (aromatase): 0.094 µM

Compound: Clc1ccccc1C(c1cccnc1)(c1ccccc1Cl)n1cncn1 [3-[bis(2-chlorophenyl)-1H--1,2,4-triazol-1-ylmethyl]pyridine]
EC50 (aromatase): 0.72 µM

Compound: Cc1nccn1C(c1ccccc1)(c1ccccc1)c1ccncc1 [4-[(2-methyl-1-imidazol-1-yl)diphenylmethyl]pyridine]
EC50 (aromatase): 0.12 µM

Compound: COc1ccc(C(c2ccccc2)(c2ccc(OC)cc2)n2cncn2)cc1 [1-[bis(4-methoxyphenyl)phenylmethyl]-1H--1,2,4-triazole]
EC50 (aromatase): 0.24 µM

Compound: c1ccc(C(c2ccccc2)(c2ccncc2)n2cncn2)cc1 [4-(diphenyl-1H--1,2,4-triazole-1-ylmethyl)pyridine]
EC50 (aromatase): 0.16 µM

Compound: CSc1ccc(C(c2ccccc2)(c2cccnc2)n2cncn2)cc1 (stereo not shown) [3-([4-(methylthio)phenyl]phenyl-1H--1,2,4-triazol-1-ylmethyl)pyridine]
EC50 (aromatase): 0.195 µM

Compound: Clc1ccc(C(c2ccc(Cl)cc2)(c2ccc(Cl)cc2)n2ccnc2)cc1 [1-tris(4-chlorophenyl)methyl-1H--imidazole]
EC50 (aromatase): 0.27 µM

Second part, led by results:

EC50 (aromatase): 0.087 µM
Compound: Cl.Clc1cccc(Cn2ccnc2)c1Cl [1-(2,3-dichlorobenzyl)imidazole hydrochloride]
Mean Steroid Concentration, estradiol (estrogen synthesis; [2]): 2.09 femtomoles per milligram of protein
Mean Steroid Concentration, estriol (estrogen synthesis; [2]): 0.78 femtomoles per milligram of protein
Mean Steroid Concentration, estrone (estrogen synthesis; [2]): 0.34 femtomoles per milligram of protein
Mean Uterine Weight (estrogen synthesis; [2]): 139.4 mg
Mean Steroid Concentration, estradiol (estrogen synthesis; [3]): 1.12 femtomoles per milligram of protein
Mean Steroid Concentration, estriol (estrogen synthesis; [3]): 0.41 femtomoles per milligram of protein
Mean Steroid Concentration, estrone (estrogen synthesis; [3]): 0.23 femtomoles per milligram of protein
Mean Uterine Weight (estrogen synthesis; [3]): 127.3 mg

EC50 (aromatase): < 0.05 µM
Compound: CCOc1ccccc1C(C)n1ccnc1 (stereo not shown) [1-[1-(2-ethoxyphenyl)ethyl]-1H--imidazole nitrate]

EC50 (aromatase): 0.11 µM
Compound: c1ccc(C2(n3ccnc3)CCCCCC2)cc1 [1-(1-phenylcycloheptyl)-1H--imidazole]

EC50 (aromatase): 1.75 µM
Compound: FC(F)(F)c1ccccc1Cn1ccnc1 [1-[(2-trifluoromethylphenyl)methyl]-1H--imidazole hydrochloride]

EC50 (aromatase): 3.5 µM
Compound: Clc1ccccc1Cn1ccnc1 [1-(2-chlorobenzyl)imidazole hydrochloride]

EC50 (aromatase): < 0.05 µM
Compound: CSc1ccc(C(c2ccccc2)(c2cccnc2)n2ccnc2)cc1 (stereo not shown) [3-(1H--imidazol-1-yl-[4-(methylthio)phenyl]phenylmethyl)pyridine]

EC50 (aromatase): 0.11 µM
Compound: Clc1ccc(C(c2ccccc2)(c2ccc(Cl)cc2)n2ccnc2)cc1 [1-[bis(4-chlorophenyl)phenylmethyl]-1H--imidazole]

EC50 (aromatase): > 5 µM
Compound: Clc1cccc(Cl)c1Cn1ccnc1 [1-[(2,6-dichlorophenyl)methyl]-1H--imidazole hydrochloride]

EC50 (aromatase): 0.73 µM
Compound: Clc1ccc(Cn2ccnc2)c(Cl)c1 [1-[(2,4-dichlorophenyl)methyl]-1H--imidazole hydrochloride]

EC50 (aromatase): > 5 µM
Compound: Clc1ccc(Cn2cncn2)cc1 [1-(4-chlorobenzyl)-1H--1,2,4-triazole]

EC50 (aromatase): 0.84 µM
Compound: Cc1ccc(Cn2ccnc2)cc1 [1-[(4-methylphenyl)methyl]-1H--imidazole hydrochloride]

EC50 (aromatase): 0.086 µM
Compound: c1ccc(CCOc2ccccc2Cn2ccnc2)cc1 [1-[(2-[2-phenylethoxy]phenyl)methyl]-1H--imidazole nitrate]

EC50 (aromatase): 0.63 µM
Compound: Fc1ccc(Cn2ccnc2)cc1 [1-[(4-fluorophenyl)methyl]-1H--imidazole nitrate]

EC50 (aromatase): 2.5 µM
Compound: COc1ccc(Cn2ccnc2)cc1 [1-[(4-methoxyphenyl)methyl]-1H--imidazole hydrochloride]

EC50 (aromatase): 0.41 µM
Compound: CC(C)C(c1cccc2ccccc12)n1ccnc1 (stereo not shown) [1-[2-methyl-1-(1-naphthalenyl)propyl]-1H--imidazole nitrate]

EC50 (aromatase): 1.05 µM
Compound: CC(c1ccccc1)n1ccnc1 (stereo not shown) [1-(1-phenylethyl)-1H--imidazole hydrochloride]

EC50 (aromatase): 1.56 µM
Compound: CCOc1ccccc1Cn1ccnc1 [1-[(2-ethoxyphenyl)methyl]-1H--imidazole hydrochloride]
